Target: T1, CDK2/cyclin A1 (Homo sapiens, UniProt P24941)
T1 construct: purchased Thermo Fisher Scientific (Life Technologies) SelectScreen
Experiment: SelectScreen LanthaScreen
Format: binding
Conditions: 1 µM
Procedure, shortened: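 NU5455 was profiled across the SelectScreen Broad panel of kinase activity and binding assays. Z'LYTE reactions such as CSF1R ran at apparent Km ATP, while the Adapta CAMK1 assay used ATP listed as 10. Values are given as percent.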

CN(C(=O)CN1CCOCC1)c1ccc2sc3c(-c4cccc5c(=O)cc(N6CC7CCC(C6)O7)oc45)cccc3c2c1 [NU5455]
% displacement: -1.6%

Source: article PMC6934184, “Selective DNA-PKcs inhibition extends the therapeutic index of localized radiotherapy and chemotherapy” (The Journal of Clinical Investigation, 2019)
